From patent publication US5658906A, “Cysteine protease and serine protease inhibitors” (Cephalon, Inc., priority 1996, dated 1997)

Columns and labels:
Cathepsin B = molecular target: T1, Cathepsin B (Homo sapiens, UniProt P07858); test: Inhibition and rate of inactivation of cathepsin B (Cbz-Phe-Arg-AMC hydrolysis); assay type: biochemical; details: pH 6.0, 0.1 mM substrate, read-out: k2 (second order rate constant of inactivation), C = Cathepsin B
T1 construct: purchased Calbiochem 219364
Protocol: Additionally, the order of reagents added to the plate was altered because both enzymes are constitutively active. Following inhibitor addition to the plates appropriate 2× concentrated stock dilutions of the enzyme preparations were made in assay buffer and 100 ul added to each well. The assay was initiated by addition of 100 ul of 2× concentrated stock dilution of substrate in assay buffer. Substrate hydrolysis was monitored using a Fluroskan II (ex=390 nm; em=460 nm).
Inhibition of enzyme activity was calculated as the percent decrease in the rate of substrate hydrolysis in the presence of inhibitor (.upsilon.i) relative to the rate in its absence (.upsilon.o). Comparison between .upsilon.o and .upsilon.i was made within the linear range for substrate hydrolysis. For screening, compounds were tested at 10 μM. Compounds having ≥50% inhibition at 10 μM were considered active. Apparent second order rate constants were determined from analysis of reaction progress curves under pseudo-first order conditions. Each determination represents the mean of three or more independent single cuvette analyses continually monitored via a Perkin-Elmer LS50B spectrofluorimeter. The rate of inhibition of hydrolysis was obtained by fitting the curve to the exponential equation (1):
y=Ae^-k.spsb.obs·t +B (1)
where y (Pt) is the product formed at time t. A and B are constants. A, the amplitude of the reaction, is given by [Po -P.varies. ] and B (=P.varies.) is the maximal product formed when the reaction is […]. This was corrected for the presence of equation (2): […]

Calpain I = molecular target: T2, Calpain I (Homo sapiens, UniProt P07384); test: Inhibition and rate of inactivation of calpain I (Succ-Leu-Tyr-MNA hydrolysis); assay type: biochemical; details: mean of three or more independent analyses, corrected for substrate, k2 = kapp(1+[S]/Km), read-out: k2 (second order rate constant of inactivation), A = Calpain I
T2 construct: Calpain I was purified from human red blood cells; from tissue; host or cells: human red blood cells (packed, outdated)
T2 sequence (P07384 1-714): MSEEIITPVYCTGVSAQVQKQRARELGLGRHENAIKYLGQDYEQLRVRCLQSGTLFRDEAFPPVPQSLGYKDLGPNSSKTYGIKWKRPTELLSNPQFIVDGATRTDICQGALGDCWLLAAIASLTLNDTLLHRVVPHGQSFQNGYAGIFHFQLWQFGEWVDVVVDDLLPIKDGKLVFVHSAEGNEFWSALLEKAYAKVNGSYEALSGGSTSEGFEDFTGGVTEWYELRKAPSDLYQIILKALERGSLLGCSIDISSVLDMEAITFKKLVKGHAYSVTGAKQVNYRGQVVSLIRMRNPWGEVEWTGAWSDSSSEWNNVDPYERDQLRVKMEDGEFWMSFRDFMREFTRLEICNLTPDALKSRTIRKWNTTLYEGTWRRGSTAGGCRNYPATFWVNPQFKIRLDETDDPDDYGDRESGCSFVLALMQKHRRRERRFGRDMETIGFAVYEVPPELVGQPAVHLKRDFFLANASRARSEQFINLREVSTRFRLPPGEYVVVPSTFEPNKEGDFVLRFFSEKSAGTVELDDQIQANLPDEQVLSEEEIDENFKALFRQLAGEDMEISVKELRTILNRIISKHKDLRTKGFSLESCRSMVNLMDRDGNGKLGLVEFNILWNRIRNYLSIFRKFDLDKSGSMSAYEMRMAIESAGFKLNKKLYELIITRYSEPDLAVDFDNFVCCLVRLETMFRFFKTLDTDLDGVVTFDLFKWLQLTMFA
T2 sequence (P04632 1-268 partner): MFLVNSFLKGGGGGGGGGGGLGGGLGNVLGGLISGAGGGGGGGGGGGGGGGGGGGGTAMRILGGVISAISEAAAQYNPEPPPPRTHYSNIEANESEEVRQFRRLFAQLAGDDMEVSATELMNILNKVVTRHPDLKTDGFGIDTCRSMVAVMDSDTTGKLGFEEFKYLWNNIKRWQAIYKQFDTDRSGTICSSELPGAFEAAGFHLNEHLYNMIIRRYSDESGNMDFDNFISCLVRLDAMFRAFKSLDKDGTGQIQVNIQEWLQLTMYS
Protocol: To evaluate inhibitory activity of our compounds, stocks (40 times concentrated) of each compound to be tested were prepared in 100% anhydrous dimethyl sulfoxide (DMSO) and 5 μl of each inhibitor preparation was aliquoted into each of three wells of a 96 well plate. Calpain I was purified from human red blood cells using a modification of the method described by Lee, W. J. et al. (Biochem. Internatl. (1990)22(1): 163-171). Briefly, 3 units of packed outdated red blood cells were washed 3× by repeated centrifugation at 500 rpm for 10 minutes through 900 mls of 0.9% NaCl. Cells were lysed in 20 mM Tris/1 mM EDTA/1 mM EGTA/5 mM mercaptoethanol (Buffer A) and centrifuged for 1 hour at 12,000 rpm in a GSA rotor using a Sorval centrifuge. The supernatant was collected and applied to a DEAE-sepharose FF column equilibrated in Buffer A+25 mM NaCl. After washing the column in Buffer A+25 mM NaCl, the bound protein was eluted at 117 ml/hr with a 25 mM to 150 mM NaCl linear gradient in Buffer A collecting 200, 10 mL fractions. Two μl of every fifth fraction was applied to nitrocelluose using a dot blot apparatus and calpain containing fractions identified by Western analysis. For detection of calpain, nitrocellulose sheets were first blocked in 5% Blotto (5% Carnation instant milk/10 mM Tris/[…]150 mM NaCl) for 30 minutes, followed by incubation for 1 hour in antibody directed against Calpain I (rabbit anti-human calpain I polyclonal sera, 1:1000 dilution in 5% Blotto). After three 5 minutes washes in 10 mM Tris/150 mM NaCl/0.05% Tween 20 the nitrocellulose was incubated for 1 hour in secondary alkaline phosphatase conjugated antibody (Biorad Cat#170-6518 1:2000 in 5% Blotto). After three 5 minutes washes in 10 mM Tris/150 mM NaCl/0.05% Tween 20 and 1 wash in 10 mM Tris/150 mM NaCl the nitrocellulose was incubated for up to 2 hours in a colorimetric substrate solution (Biorad Alkaline Phosphatase Substrate conjugate kit, cat#170-6432). The reaction was stopped by washing in water. After fractions containing calpain, and those in between, were pooled, solid ammonium sulfate was added to achieve a 30% solution and the mixture stirred for 1 hour at 4° C. Following collection of the precipitate by centrifugation for 1 hour at 4° C. at 12K rpm in a GSA rotor, the supernatant was collected and brought to 45% in ammonium sulfate. After stirring for 1 hour at 4° C., centrifugation was repeated. The supernatant was discarded and the precipitate resuspended in approximately 7 mls and dialyzed overnight at 4° C. against Buffer A+50 mM NaCl. The sample was then applied to a S300 gel filtration column preequilibrated in Buffer A+50 mM NaCl, washed and eluted at a flow rate of 20 ml/hr, collecting 200, 4 ml fractions. The peak of calpain was determined by assaying aliquots of every fifth fraction for enzyme activity monitored by the hydrolysis of a fluorogenic dipeptide substrate as described below. The peak fractions were pooled and the enzyme preparation used to test compounds for inhibitory activity. As an alternate to enzyme isolated from tissue sources, recombinant human calpain I has also been used to monitor compounds for inhibitory activity.
The foregoing enzyme preparation was diluted into assay buffer (i.e., 50 mM Tris, 50 mM NaCl, 1 mM EDTA, 1 mM EGTA, and 5 mM β-mercaptoethanol, pH 7.5 including 0.2 mM Succ-Leu-Tyr-MNA) and 175 μl aliquoted into the same wells containing the independent inhibitor stocks as well as to positive control wells containing 5 μl DMSO, but no compound. To start the reaction, 20 μl of 50 mM CaCl2 in assay buffer was added to all wells of the plate, excepting three, which were used as background signal baseline controls. Substrate hydrolysis was monitored every 5 minutes for a total of 30 minutes using Flouroskan II (ex=340 nm; em=430 nm). Substrate hydrolysis in the absence of inhibitor was linear for up to 15 minutes. […]

| SMILES | kinact/KI (Cathepsin B) | kinact/KI (Calpain I) |
| --- | --- | --- |
| Cc1cc2c(cc1Cl)nnn2OCC(=O)[C@H](Cc1ccccc1)NC(=O)[C@H](CC(C)C)NC(=O)OCc1ccccc1 [Example 13, 1-[N-[N-Benzyloxycarbonyl-L-leucyl]-3S-4-phenyl-3-amino-2-oxobutyloxy]-5'-chloro-6'methylbenzotriazole] | 29000 M⁻¹ s⁻¹ | 116000 M⁻¹ s⁻¹ |
| CC(C)C[C@H](NC(=O)OCc1ccccc1)C(=O)N[C@@H](Cc1ccccc1)C(=O)COn1nnc2c(Cl)cccc21 [Example 14, 1-[N-[N-Benzyloxycarbonyl-L-leucyl]-3S-4-phenyl-3-amino-2-oxybutyloxy]-4'-chlorobenzotriazole] |  | 157000 M⁻¹ s⁻¹ |
| CC(C)C[C@H](NC(=O)OCc1ccccc1)C(=O)N[C@@H](Cc1ccccc1)C(=O)COn1nnc2ccc(-c3ccccc3)cc21 [Example 15, 1-[N-[N-Benzyloxycarbonyl-L-leucyl]-3S-4-phenyl-3-amino-2-oxybutyloxy]-6'-phenylbenzotriazole] | 16000 M⁻¹ s⁻¹ | 77000 M⁻¹ s⁻¹ |
| CC(C)C[C@H](NC(=O)OCc1ccccc1)C(=O)N[C@@H](Cc1ccccc1)C(=O)COn1nnc2cc(Cl)ccc21 [Example 17, 1-[N-[N-Benzyloxycarbonyl-L-leucyl]-3S-4-phenyl-3-amino-2-oxybutyloxy]-5'-chlorobenzotriazole] |  | 164000 M⁻¹ s⁻¹ |
| CC(C)C[C@H](NC(=O)OCc1ccccc1)C(=O)N[C@@H](Cc1ccccc1)C(=O)COn1nnc2cc(Cl)c(Cl)cc21 [Example 18, 1-[N-[N-Benzyloxycarbonyl-L-leucyl]-3S-4-phenyl-3-amino-2-oxybutyloxy]-5',6'-dichlorobenzotriazole] | 115000 M⁻¹ s⁻¹ | 65000 M⁻¹ s⁻¹ |
| CC(C)C[C@H](NC(=O)OCc1ccccc1)C(=O)N[C@@H](Cc1ccccc1)C(=O)COn1nnc2c(Cl)c(Cl)c(Cl)c(Cl)c21 [Example 20, 1-[N-[N-Benzyloxycarbonyl-L-leucyl]-3S-4-phenyl-3-amino-2-oxybutyloxy]-4',5'6',7'-tetrachlorobenzotriazole] |  | 1300 M⁻¹ s⁻¹ |
| CC(C)C[C@H](NC(=O)OCc1ccccc1)C(=O)N[C@@H](Cc1ccccc1)C(=O)COn1nnc2c(Cl)cc(Cl)c(Cl)c21 [Example 21, 1-[N-[N-Benzyloxycarbonyl-L-leucyl]-3S-4-phenyl-3-amino-2-oxybutyloxy]-4',6',7'-trichlorobenzotriazole] | 10000 M⁻¹ s⁻¹ | 1800 M⁻¹ s⁻¹ |
| CC(C)C[C@H](NC(=O)OCc1ccccc1)C(=O)N[C@@H](Cc1ccccc1)C(=O)COn1nnc2c(Cl)c(Cl)ccc21 [Example 23, 1-[N-[N-Benzyloxycarbonyl-L-leucyl]-3S-4-phenyl-3-amino-2-oxybutyloxy]-4',5'-dichlorobenzotriazole] |  | 64000 M⁻¹ s⁻¹ |
| CCc1cc2c(cc1Cl)nnn2OCC(=O)[C@H](Cc1ccccc1)NC(=O)[C@H](CC(C)C)NC(=O)OCc1ccccc1 [Example 24, 1-[N-[N-Benzyloxycarbonyl-L-leucyl]-3S-4-phenyl-3-amino-2-oxybutyloxy]-5'-chloro-6'-ethylbenzotriazole] | 30000 M⁻¹ s⁻¹ | 84000 M⁻¹ s⁻¹ |
| Cc1ccc2nnn(OCC(=O)[C@H](Cc3ccccc3)NC(=O)[C@H](CC(C)C)NC(=O)OCc3ccccc3)c2c1 [Example 26, 1-[N-[N-Benzyloxycarbonyl-L-leucyl]-3S-4-phenyl-3-amino-2-oxobutyloxy]-6'-methylbenzotriazole] |  | 112000 M⁻¹ s⁻¹ |
| Cc1ccc2c(c1)nnn2OCC(=O)[C@H](Cc1ccccc1)NC(=O)[C@H](CC(C)C)NC(=O)OCc1ccccc1 [Example 27, 1-[N-[N-Benzyloxycarbonyl-L-leucyl]-3S-4-phenyl-3-amino-2-oxobutyloxy]-5'-methylbenzotriazole] |  | 230000 M⁻¹ s⁻¹ |
| COc1cc2nnn(OCC(=O)[C@H](Cc3ccccc3)NC(=O)[C@H](CC(C)C)NC(=O)OCc3ccccc3)c(=O)c2cc1OC [Example 29, 1-[N-[N-Benzyloxycarbonyl-L-leucyl]-3S-4-phenyl-3-amino-2-oxobutyloxy]-3-(6',7'-dimethoxy)benzotriazin-4-one] |  | 171000 M⁻¹ s⁻¹ |
| CC(C)C[C@H](NC(=O)OCc1ccccc1)C(=O)N[C@@H](Cc1ccccc1)C(=O)COn1nnc2ccc(Cl)cc2c1=O [Example 30, 1-[N-[N-Benzyloxycarbonyl-L-leucyl]-3S-4-phenyl-3-amino-2-oxobutyloxy]-3-(6'-chloro)benzotriazin-4-one] |  | 180000 M⁻¹ s⁻¹ |
| CC(C)C[C@H](NC(=O)[C@H](CC(C)C)NC(=O)OCc1ccccc1)C(=O)COn1nnc2ccccc2c1=O [Example 31, 1-[N-[N-Benzyloxycarbonyl-L-leucyl]-3S-5-methyl-3-amino-2-oxohexyloxy]-3-benzotriazin-4-one] |  | 46000 M⁻¹ s⁻¹ |
| CC[C@H](C(=O)C[C@@H](CC(C)C)C(=O)N[C@@H](Cc1ccccc1)C(=O)COn1nnc2ccccc21)c1ccccc1 [Example 46, 1-[N-[2R-(2-methylpropyl)-1,4-dioxo-5S-phenylheptan-1-yl]-3S-3-amino-2-oxo-4-phenylbutyloxy]benzotriazole] |  | 3000 M⁻¹ s⁻¹ |
